Data on seven compounds can be found in ChEMBL document CHEMBL4715932, “Positional Isomers of Biphenyl Antimicrobial Peptidomimetic Amphiphiles” (ACS Med Chem Lett, 2021).

SMILES strings stand for the structures. In brackets after ≈: the same amount, converted by molar mass. Bounds are passed on as bounds.

One series has as its system Streptococcus pneumoniae. Kind of series: Antibacterial activity against Streptococcus pneumoniae ATCC 49619 assessed as inhibition of growth visually by CLSI method. The class given is functional.
In series [1] the test system is Enterococcus faecalis. Kind of series: Antibacterial activity against Enterococcus faecalis ATCC 29212 assessed as inhibition of growth visually by CLSI method. It counts as functional.
A short description of series [2]: Hemolytic activity in human RBC assessed as hemolysis incubated for 1 hr by CO-ADD method. The class given is ADME, cell-based, Erythrocyte. The settings on record: red blood cells (erythrocytes).
Series [3] concerns Staphylococcus aureus. The experiment in a line: Antibacterial activity against Staphylococcus aureus ATCC 29213 assessed as inhibition of growth visually by CLSI method. It counts as functional.
Series [4] has as its system Clostridioides difficile. The experiment in a line: Antibacterial activity against Clostridioides difficile NSW 132 (RT027) assessed as inhibition of growth visually preincubated for 2 to 4 hrs measured after 48 hrs by CLSI method. The class given is functional. As to conditions: time hrs <=52.
Series [5] can be described thus: Cytotoxicity against human HEK-293 cells assessed as maximal inhibition at <= 32 ug/ml incubated for 23 hrs by CO-ADD method. The class given is cell-based, HEK293. As to conditions: dose <=32 µg/ml, read-out: Imax.
For series [6], the system named is Staphylococcus aureus. The experiment in a line: Antimicrobial activity against methicillin resistant Staphylococcus aureus ATCC 43300 assessed as growth inhibition incubated for 18 hrs. The class given is functional.
The test system of a further series is Klebsiella pneumoniae. The experiment in a line: Antimicrobial activity against multidrug-resistant Klebsiella pneumoniae ATCC 700603 assessed as growth inhibition incubated for 18 hrs. The class given is functional.
Series [7] can be described thus: Hemolytic activity in sheep RBC assessed as hemolysis at 50 microg/ml incubated for 2 hrs. The class given is ADME, cell-based, Ovis aries, Erythrocyte. As to conditions: red blood cells (erythrocytes), at 50 µg/mL, read-out: Activity.
In series [8] the test system is Escherichia coli. Kind of series: Antibacterial activity against Escherichia coli ATCC 10418 assessed as inhibition of growth visually by CLSI method. The class given is functional.
Series [9] is described as follows: Hemolytic activity in sheep RBC assessed as hemolysis at 5 microg/ml incubated for 2 hrs by CO-ADD method. It counts as ADME, cell-based, Ovis aries, Erythrocyte. As to conditions: red blood cells (erythrocytes), at 5 µg/mL, read-out: Activity.
For series [10], the system named is Enterococcus faecalis. The experiment in a line: Antibacterial activity against vancomycin-resistant Enterococcus faecalis ATCC 51299 assessed as inhibition of growth visually by CLSI method. It counts as functional.
The test system of series [11] is Escherichia coli. Kind of series: Antimicrobial activity against Escherichia coli ATCC 25922 assessed as growth inhibition incubated for 18 hrs. It counts as functional.
For another series, the system named is Pseudomonas aeruginosa. The experiment in a line: Antimicrobial activity against Pseudomonas aeruginosa ATCC 27853 assessed as growth inhibition incubated for 18 hrs. The class given is functional.
The test system of a further series is Candida albicans. Kind of series: Antifungal activity against Candida albicans ATCC 90028 assessed as growth inhibition incubated for 36 hrs. The class given is functional. The settings on record: 28A ATCC 90028.
Series [12] is described as follows: Hemolytic activity in human RBC assessed as maximal hemolysis at <= 32 ug/ml incubated for 1 hr by CO-ADD method. It counts as cell-based, Erythrocyte. The settings on record: red blood cells (erythrocytes), dose <=32 µg/ml, read-out: Activity.
The test system of series [13] is Staphylococcus aureus. The experiment in a line: Antibacterial activity against vancomycin intermediate susceptibility Staphylococcus aureus Mu50 assessed as inhibition of growth visually by CLSI method. The class given is functional.
The nature of series [14]: Cytotoxicity against human HEK-293 cells incubated for 23 hrs by CO-ADD method. The class given is cell-based, HEK293.
The subject of the next series is Acinetobacter baumannii. Kind of series: Antimicrobial activity against Acinetobacter baumannii ATCC 19606 assessed as growth inhibition incubated for 18 hrs. The class given is functional.
In series [15] the test system is Staphylococcus aureus. The experiment in a line: Antibacterial activity against methicillin-resistant Staphylococcus aureus NCTC 10442 assessed as inhibition of growth visually by CLSI method. It counts as functional.
The subject of series [16] is Clostridioides difficile. The experiment in a line: Antibacterial activity against Clostridioides difficile ATCC 700057 assessed as inhibition of growth visually preincubated for 2 to 4 hrs measured after 48 hrs by CLSI method. The settings on record: time hrs <=52. The class given is functional.
Another series deals with Cryptococcus neoformans. Kind of series: Antifungal activity against Cryptococcus neoformans H99 ATCC 208821 assessed as growth inhibition incubated for 36 hrs. It counts as functional. As to conditions: var. grubii H99 ATCC 208821.

As for `CC(C)CCOc1cccc(-c2ccccc2OCc2cn(C[C@@H](CCCCN)NC(=O)[C@@H](CCCNC(=N)N)n3cc(CC4CCCCC4)nn3)nn2)c1.Cl.Cl`, the MIC stood at 1 µg/mL in the series on Streptococcus pneumoniae; 2 µg/mL with Enterococcus faecalis [1]; 2 µg/mL in the series on Staphylococcus aureus [3]; 16 µg/mL in the series with Clostridioides difficile [4]; 2 µg/mL in the series with Escherichia coli [8]; 8 µg/mL in the series with Enterococcus faecalis [10]. For the same compound, the MIC in the series with Staphylococcus aureus [13] came out at 2 µg/mL; in the series with Staphylococcus aureus [15], 2 µg/mL; in the series on Clostridioides difficile [16], 16 µg/mL. Further, in series [2], the 50% haemolytic concentration (HC50) at 1 h was more than 32 µg/mL. Besides, in [5], the Emax at 23 h stood at 28%. Besides, the MIC80 in the series with Staphylococcus aureus [6] was not above 0.25 µg/mL; in the series with Klebsiella pneumoniae it was more than 32 µg/mL; in the series on Escherichia coli [11], 8 µg/mL; in the series on Pseudomonas aeruginosa, 8 µg/mL; in the series with Candida albicans it was 32 µg/mL; in the series on Acinetobacter baumannii, 4 µg/mL. Besides, in the series on Cryptococcus neoformans, the MIC80 was more than 32 µg/mL. In [7], the hemolysis at 2 h, 50 microg/ml is 72.1%. Besides, the hemolysis at 2 h, 5 microg/ml in series [9] amounted to 2.6%. Besides, the hemolysis at 1 h in series [12] amounted to 38%. The same compound returned a CC50 at 23 h in series [14] of more than 32 µg/mL.

For `CC(C)CCOc1ccc(-c2ccc(OCc3cn(C[C@@H](CCCCN)NC(=O)[C@@H](CCCNC(=N)N)n4cc(CC5CCCCC5)nn4)nn3)cc2)cc1.Cl.Cl`, the MIC was found to be 2 µg/mL with Streptococcus pneumoniae; 8 µg/mL with Enterococcus faecalis [1]; 4 µg/mL in the series with Staphylococcus aureus [3]; 8 µg/mL with Clostridioides difficile [4]; 32 µg/mL with Escherichia coli [8]; 16 µg/mL in the series with Enterococcus faecalis [10]. In addition, the figures for the MIC in the series on Staphylococcus aureus [13], with Staphylococcus aureus [15] and with Clostridioides difficile [16] were 4 µg/mL, 4 µg/mL and 16 µg/mL, respectively. In addition, the 50% haemolytic concentration (HC50) at 1 h in series [2] worked out at 9.8 µg/mL. In addition, the Emax at 23 h in series [5] came out at 25%. In addition, the MIC80 with Staphylococcus aureus [6] was not above 0.25 µg/mL; with Klebsiella pneumoniae, 32 µg/mL; with Escherichia coli [11], 8 µg/mL; in the series with Pseudomonas aeruginosa it was 8 µg/mL; in the series on Candida albicans, 1 µg/mL; in the series with Acinetobacter baumannii, 32 µg/mL. The MIC80 with Cryptococcus neoformans is more than 32 µg/mL. The hemolysis at 2 h, 50 microg/ml in series [7] came to 57.2%. The hemolysis at 2 h, 5 microg/ml in [9] was found to be 1.4%. In addition, in series [12], the hemolysis at 1 h stood at 94%. In [14], this compound showed a CC50 at 23 h of more than 32 µg/mL.

Regarding `CC(C)CCOc1ccccc1-c1ccc(OCc2cn(C[C@@H](CCCCN)NC(=O)[C@@H](CCCNC(=N)N)n3cc(CC4CCCCC4)nn3)nn2)cc1.Cl.Cl`, the MIC in the series with Streptococcus pneumoniae came to 1 µg/mL; in the series on Enterococcus faecalis [1], 4 µg/mL; with Staphylococcus aureus [3], 2 µg/mL; in the series with Clostridioides difficile [4], 8 µg/mL; in the series with Escherichia coli [8], 8 µg/mL; in the series with Enterococcus faecalis [10], 16 µg/mL. For the same compound, the results for the MIC with Staphylococcus aureus [13], in the series with Staphylococcus aureus [15] and in the series with Clostridioides difficile [16] were 4 µg/mL, 4 µg/mL and 16 µg/mL, respectively. The HC50 at 1 h in series [2] is more than 32 µg/mL. The Emax at 23 h in [5] worked out at 40%. The MIC80 was not above 0.25 µg/mL with Staphylococcus aureus [6]; 32 µg/mL with Klebsiella pneumoniae; 8 µg/mL in the series on Escherichia coli [11]; 8 µg/mL with Pseudomonas aeruginosa; 16 µg/mL in the series on Candida albicans; 4 µg/mL with Acinetobacter baumannii. Besides, the MIC80 with Cryptococcus neoformans was more than 32 µg/mL. Moreover, the hemolysis at 2 h, 50 microg/ml in series [7] came out at 66.4%. In addition, in [9], the hemolysis at 2 h, 5 microg/ml amounted to 2%. The hemolysis at 1 h in [12] amounted to 82%. Also, the CC50 at 23 h in series [14] was more than 32 µg/mL.

Turning to `CC(C)CCOc1ccc(-c2ccccc2OCc2cn(C[C@@H](CCCCN)NC(=O)[C@@H](CCCNC(=N)N)n3cc(CC4CCCCC4)nn3)nn2)cc1.Cl.Cl`, the MIC with Streptococcus pneumoniae came out at 1 µg/mL; in the series on Enterococcus faecalis [1], 4 µg/mL; in the series on Staphylococcus aureus [3], 4 µg/mL; with Clostridioides difficile [4], 16 µg/mL; in the series with Escherichia coli [8], 4 µg/mL; with Enterococcus faecalis [10], 8 µg/mL. Moreover, the MIC amounted to 4 µg/mL in the series on Staphylococcus aureus [13], 2 µg/mL in the series on Staphylococcus aureus [15] and 16 µg/mL with Clostridioides difficile [16]. The concentration for 50% haemolysis (HC50) at 1 h in [2] is more than 32 µg/mL. Besides, in series [5], the Emax at 23 h is 13%. Moreover, the MIC80 is not above 0.25 µg/mL in the series with Staphylococcus aureus [6]; 32 µg/mL with Klebsiella pneumoniae; 4 µg/mL in the series with Escherichia coli [11]; 8 µg/mL in the series with Pseudomonas aeruginosa; more than 32 µg/mL in the series on Candida albicans; 4 µg/mL with Acinetobacter baumannii. In addition, in the series on Cryptococcus neoformans, the MIC80 is more than 32 µg/mL. Moreover, in series [7], the hemolysis at 2 h, 50 microg/ml worked out at 63%. For the same compound, the hemolysis at 2 h, 5 microg/ml in series [9] is 2.7%. The hemolysis at 1 h in [12] was 41%. In [14], the half-maximal cytotoxic concentration (CC50) at 23 h is more than 32 µg/mL.

Regarding `CC/C(=C(\c1ccccc1)c1ccc(OCCN(C)C)cc1)c1ccccc1` [TAMOXIFEN], the 50% cytotoxic concentration (CC50) at 23 h in series [14] was found to be 9 µg/mL (≈ 24.2 µM).

Turning to `CN[C@H](CC(C)C)C(=O)N[C@H]1C(=O)N[C@@H](CC(N)=O)C(=O)N[C@H]2C(=O)N[C@H]3C(=O)N[C@H](C(=O)N[C@H](C(=O)O)c4cc(O)cc(O)c4-c4cc3ccc4O)[C@H](O)c3ccc(c(Cl)c3)Oc3cc2cc(c3O[C@@H]2O[C@H](CO)[C@@H](O)[C@H](O)[C@H]2O[C@H]2C[C@](C)(N)[C@H](O)[C@H](C)O2)Oc2ccc(cc2Cl)[C@H]1O` [VANCOMYCIN], the minimum inhibitory concentration (MIC) was 2 µg/mL (≈ 1.38 µM) in the series on Enterococcus faecalis [1]; 0.5 µg/mL (≈ 0.345 µM) in the series on Clostridioides difficile [4]; more than 8 µg/mL in the series on Escherichia coli [8]; more than 8 µg/mL with Enterococcus faecalis [10]; 8 µg/mL (≈ 5.52 µM) in the series with Staphylococcus aureus [13]; 1 µg/mL (≈ 0.69 µM) in the series on Clostridioides difficile [16]. In addition, the MIC80 in the series with Staphylococcus aureus [6] was determined as 1 µg/mL (≈ 0.69 µM).

For `CC(C)(C)c1ccc(CC(N)C(=O)NC(CCCNC(=N)N)C(=O)Nc2cc(NC(=O)C(CCCNC(=N)N)NC(=O)C(N)Cc3ccc(C(C)(C)C)cc3)cc(C(N)=O)c2)cc1` (stereo not drawn), in series [2], the HC50 at 1 h was more than 100 µg/mL. Further, the MIC in the series with Staphylococcus aureus [3] was 3.9 µg/mL (≈ 4.48 µM).
